Where two headings read alike, the source gives them in different places.
Key:
[1] = target: T1, human mu opioid receptor (hMOR) (Homo sapiens, UniProt P35372); experiment: Mu radioligand binding assay ([3H]diprenorphine, CHO cell membranes); conditions: read-out: hMOR binding assay Ki
T1 construct: expressed in transfected cells; host or cells: CHO cells
Summary of the method: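 Membranes from CHO cells expressing human mu receptor were incubated 1 h at room temperature with [3H]diprenorphine (0.5 nM final) in Tris pH 7.4 buffer with EDTA and MgCl2; naltrexone (10 μM) defined non-specific binding. Filter-bound radioactivity was counted; Ki derived by Cheng-Prusoff from IC50.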

[2] = target: T2, human kappa opioid receptor (hKOR) (Homo sapiens, UniProt P41145); experiment: Kappa radioligand binding assay ([3H]diprenorphine, CHO cell membranes); conditions: for Selectivity hMOR/hKOR: selectivity ratio calculated by dividing the hMOR Ki by the hKOR Ki
T2 construct: expressed in transfected cells; host or cells: CHO cells
T2 sequence (P41145 whole entry): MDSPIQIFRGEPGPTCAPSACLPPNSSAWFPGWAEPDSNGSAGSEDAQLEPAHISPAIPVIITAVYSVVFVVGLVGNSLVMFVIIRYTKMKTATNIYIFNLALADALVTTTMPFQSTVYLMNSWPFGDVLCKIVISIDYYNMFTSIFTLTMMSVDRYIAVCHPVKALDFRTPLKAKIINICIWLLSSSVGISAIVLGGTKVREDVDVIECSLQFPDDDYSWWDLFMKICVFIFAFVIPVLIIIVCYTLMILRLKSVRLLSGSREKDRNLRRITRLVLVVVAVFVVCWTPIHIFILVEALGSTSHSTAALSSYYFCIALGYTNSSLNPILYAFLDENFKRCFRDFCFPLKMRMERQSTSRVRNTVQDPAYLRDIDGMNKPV
Summary of the method: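 Membranes from CHO cells expressing human kappa receptor incubated 1 h at room temperature with compound and 0.6 nM [3H]diprenorphine in 50 mM Tris pH 7.4, 1 mM EDTA, 5 mM MgCl2. Nonspecific binding defined with 10 μM naltrexone; filtration, scintillation counting; IC50 from 4-parameter fit converted to Ki via Cheng-Prusoff.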

[3] = tested on: major CYP450 isozymes; experiment: CYP450 DDI cocktail assay (reversible inhibition, all isozymes together); type: in vitro ADME, human; conditions: for risk of reversible inhibition of CYP450 isozymes, in words: 3 μM; for >25% reversible inhibition of CYP activity at 3 μM (CYP): CYP450 DDI cocktail assay, isozymes inhibited in brackets
Protocol: Multi-Point Cocktail DDI IC50 Assay Conditions:
Standard marker activity substrates were incubated with pooled human liver microsomes (HL-MIX-102) in the presence of NADPH (1.2 mM) in 100 mM KH2PO4, pH 7.4 containing 3.3 mM MgCl2 at 37° C. The incubation volume was 0.1 mL, utilizing a 384-well plate format. The microsomal protein concentrations (0.1 mg/mL) and P450 concentration (0.035 μM) was used for each probe substrate at the following concentrations [tacrine (1A2) 2 uM; diclofenac (2C9) 5 μM; dextromethorphan (2D6) 5 μM; midazolam (3A4) 2 μM; taxol (2C8) 5 μM; S-mephenytoin (2C19) 40 μM]. Substrate concentrations were near Km values that had been previously determined and incubation times were selected based on determinations of reaction velocity linearity. Each test compound/prototypical inhibitors was tested at a concentration range of 0-30 μM in triplicate, in final vehicle solvent concentrations of 0.9% acetonitrile and 0.1% DMSO. Incubations were initiated with the addition of NADPH. At the end of the incubation period, termination solvent containing internal standard was added, the terminated incubation mixture was centrifuged to precipitate microsomal protein. Samples were directly injected on an HPLC-MS/MS system. A Biomek FX workstation was used for liquid handling and sample incubation.
Reversible CYP450 inhibitory potential for each compound was assessed using the CYP450 DDI cocktail assay, measuring the inhibition of the metabolism of a known probe substrate of each of the major CYP isozymes at 3 μM concentration.

[4] = tested on: HepG2 cells; experiment: HepG2_Glu ATP viability 72 hr; type: cell-based, human; conditions: for IC50: Homo sapiens, HepG2, glucose-supplemented media, ATP viability, 72 hour exposure, read-out: HepG2 Glu 72 hr; for cytotoxicity in HepG2 cell line, in words: 72 hours, cellular ATP
Protocol: This assay was run in a similar manner to the assay as described in Marroquin et al. Toxicological Sciences 97(2), 539-547 (2007) with a modification such that the instant assay was run for a 72 hour period as described below.
The aim of this assay was to measure cytotoxicity of a compound by measuring cell viability. […] The reagent used to quantify the ATP present was Promega Cell Titer-Glo. This reagent works by catalyzing luciferin by luciferase in the presence of Mg^2+, ATP, and molecular oxygen, thus emitting a luminescent signal, which was proportional to the amount of ATP present in the sample.
HepG2 cells grown in glucose-supplemented media were plated in 384 well plates at a density of 1000 cells/well for the 72 hour assay in a total medium volume of 25 μl/well. Plates were then incubated for 24 hours at 37° C., 95% humidity, and 5% CO2 before compound dosing.
After 24 hours to allow cells to attach to the plate, HepG2 cells were exposed to test compounds in an 11-point dose response format with a […], ranging from 300 uM to 0.029 uM for 72 hours. All compounds were tested in triplicate. Following the 72 hour exposure to test compounds, cell viability was determined by measuring the concentration of cellular ATP by adding Promega Cell Titer-Glo according to the manufacturer's directions. The plates were then read on a […] plate reader and data is analyzed using ActivityBase software.

[5] = Table 20, radioligand binding, read-out: hKOR binding assay Ki
[6] = Table 19, geometric mean of 2-6 determinations unless otherwise indicated (Example 3: >=7)
[7] = Table 19, geometric mean of 2-6 determinations unless otherwise indicated (Example 3: >=7), read-out: hKOR binding assay Ki
[8] = radioligand binding, [3H]diprenorphine, read-out: hKOR Ki

T1 sequence (P35372 whole entry): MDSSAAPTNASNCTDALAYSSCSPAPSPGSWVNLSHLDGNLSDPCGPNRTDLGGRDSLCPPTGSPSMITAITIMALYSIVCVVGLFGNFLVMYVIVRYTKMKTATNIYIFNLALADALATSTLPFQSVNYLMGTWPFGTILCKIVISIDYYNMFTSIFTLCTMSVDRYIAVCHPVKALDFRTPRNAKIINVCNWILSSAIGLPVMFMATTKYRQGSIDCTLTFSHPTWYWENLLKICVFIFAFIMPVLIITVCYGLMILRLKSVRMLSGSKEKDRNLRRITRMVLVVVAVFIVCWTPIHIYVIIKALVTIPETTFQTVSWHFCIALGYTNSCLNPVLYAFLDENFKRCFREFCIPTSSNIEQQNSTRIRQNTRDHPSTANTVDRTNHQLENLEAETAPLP

NC(=O)c1ccc(Oc2ccc(CN3CCCC3c3ccccc3)cc2)nc1 (centres unmarked) [Comparator D]
Ki ([1]; Table 20, radioligand binding): 163 nM
Ki [2, 5]: 5.8 nM
Selectivity hMOR/hKOR [2]: 28
risk of reversible inhibition of CYP450 isozymes, in words [3]: a risk for reversible DDI at CYP450 isozymes 2C8, 2C9, 3A4, and/or 2D6
>25% reversible inhibition of CYP activity at 3 μM (CYP) [3]: yes (2D6)
IC50 [4]: 69000 nM

NC(=O)c1ccc(Oc2ccc(CN3CCC[C@H]3c3cccc(F)c3)cc2)c(F)c1 [Comparator F]
Ki ([1]; Table 20, radioligand binding): 37.5 nM
Ki ([2]; hKOR binding assay Ki, Table 20, radioligand binding): 1.1 nM
Selectivity hMOR/hKOR [2]: 35
>25% reversible inhibition of CYP activity at 3 μM (CYP) [3]: no
cytotoxicity in HepG2 cell line, in words [4]: cytotoxicity at lower concentrations
IC50 [4]: 56000 nM

COc1nn(C)cc1[C@@H]1CCCN1Cc1ccc(Oc2ccc(C(N)=O)cc2)cc1 (single isomer, unassigned) [Example 12]
Ki [1, 6]: 46.2 nM
Ki ([1]; Table 20, radioligand binding): 46 nM
selectivity for KOR over MOR, in words [2]: more selective than the phenyl examples, Comparators A and B
Ki [2, 7]: 1.47 nM
Ki [2, 5]: 1.5 nM
Ki [2, 8]: 1 to 3 nM
Selectivity hMOR/hKOR [2]: 31
risk of reversible inhibition of CYP450 isozymes, in words [3]: no significant risk of reversible inhibition
>25% reversible inhibition of CYP activity at 3 μM (CYP) [3]: no
cytotoxicity in HepG2 cell line, in words [4]: little to no cytotoxicity
IC50 [4]: > 300000 nM

COc1nn(C)cc1C1CCCN1Cc1ccc(Oc2ccc(C(N)=O)cc2F)cc1 (single isomer, unassigned; (-)) [Example 8, (−)-3-Fluoro-4-(4-{[2-(3-methoxy-1-methyl-1H-pyrazol-4-yl)pyrrolidin-1-yl]methyl}phenoxy)benzamide]
Ki [1, 6]: 98.7 nM
Ki ([1]; Table 20, radioligand binding): 99 nM
selectivity for KOR over MOR, in words [2]: more selective than the phenyl examples, Comparators A and B
Ki [2, 7]: 2.56 nM
Ki [2, 5]: 2.6 nM
Ki [2, 8]: 1 to 3 nM
Selectivity hMOR/hKOR [2]: 37
risk of reversible inhibition of CYP450 isozymes, in words [3]: no significant risk of reversible inhibition
>25% reversible inhibition of CYP activity at 3 μM (CYP) [3]: no
cytotoxicity in HepG2 cell line, in words [4]: little to no cytotoxicity
IC50 [4]: > 300000 nM

NC(=O)c1ccc(Oc2ccc(CN3CCCC3c3cccnc3)cc2)c(Cl)c1 (centres unmarked) [Comparator C]
Ki ([1]; Table 20, radioligand binding): 21 nM
Ki [2, 5]: 1.2 nM
Selectivity hMOR/hKOR [2]: 17
risk of reversible inhibition of CYP450 isozymes, in words [3]: a risk for reversible DDI at CYP450 isozymes 2C8, 2C9, 3A4, and/or 2D6
>25% reversible inhibition of CYP activity at 3 μM (CYP) [3]: yes (2C8, 2C9,
IC50 [4]: 72000 nM

Cc1nn(C)cc1[C@@H]1CCCN1Cc1ccc(Oc2ccc(C(N)=O)cc2)cc1 [Example 11, 4-(4-{[(2S)-2-(1,3-Dimethyl-1H-pyrazol-4-yl)pyrrolidin-1-yl]methyl}phenoxy)benzamide]
Ki [1, 6]: 51 nM
Ki ([1]; Table 20, radioligand binding): 51 nM
selectivity for KOR over MOR, in words [2]: more selective than the phenyl examples, Comparators A and B
Ki [2, 7]: 1.21 nM
Ki [2, 5]: 1.2 nM
Ki [2, 8]: 1 to 3 nM
Selectivity hMOR/hKOR [2]: 42
risk of reversible inhibition of CYP450 isozymes, in words [3]: no significant risk of reversible inhibition
>25% reversible inhibition of CYP activity at 3 μM (CYP) [3]: no
cytotoxicity in HepG2 cell line, in words [4]: little to no cytotoxicity
IC50 [4]: 267000 nM

NC(=O)c1ccc(Oc2ccc(CN3CCC(c4ccccc4)C3)cc2)nc1 (centres unmarked) [Comparator A, reference compound]
Ki ([1]; Table 20, radioligand binding): 0.1 nM
Ki [2, 5]: 3.1 nM
Selectivity hMOR/hKOR [2]: 0.03
>25% reversible inhibition of CYP activity at 3 μM (CYP) [3]: no
IC50 [4]: 174000 nM

Cc1cc(C)cc([C@@H]2CCCN2Cc2ccc(Oc3ccc(C(N)=O)cc3F)cc2)c1 [Comparator E, reference compound]
Ki ([1]; Table 20, radioligand binding): 7.8 nM
Ki [2, 5]: 0.2 nM
Selectivity hMOR/hKOR [2]: 39
risk of reversible inhibition of CYP450 isozymes, in words [3]: a risk for reversible DDI at CYP450 isozymes 2C8, 2C9, 3A4, and/or 2D6
>25% reversible inhibition of CYP activity at 3 μM (CYP) [3]: yes (2C8)
cytotoxicity in HepG2 cell line, in words [4]: cytotoxicity at lower concentrations
IC50 [4]: 43000 nM

NC(=O)c1ccc(Oc2ccc(CN3CCCCC3c3ccccc3)cc2)nc1 (centres unmarked) [Comparator B]
>25% reversible inhibition of CYP activity at 3 μM (CYP) [3]: no
IC50 [4]: 112000 nM
